Measured values: the supplement of paper PMC10307832

Legend:
Assay in all cases: relative viability (nuclei count vs DMSO), 5 days (fraction); higher = more cells survive
[1] = compound: CC1=CC=C(C=C1)C(=O)CN2C3=C(CCCC3)SC2=N [Pifithrin_alpha] + CC(=O)c1c(C)c2cnc(Nc3ccc(N4CCNCC4)cn3)nc2n(C2CCCC2)c1=O [Palbociclib] (partner 0.5 µM)
Outline: (§1)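 A single step with final 0.05% Triton X-100, 1% formaldehyde and 1 ug/ml Hoechst fixed the cells and stained nuclei 5 days after treatment. Lung cancer cell lines in 1536-well plates had been treated by pin tool the day after seeding with one drug alone or a fixed anchor-drug dose plus five library-drug doses (not always all listed) in √10 steps, and nuclei were counted on 4× images. Relative viability is the ratio of nuclei in treated wells to nuclei in vehicle wells, taken as the median of duplicate plates.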

Bemcentinib + Luminespib = compound: Nc1nc(Nc2ccc3c(c2)CC[C@@H](N2CCCC2)CC3)nn1-c1cc2c(nn1)-c1ccccc1CCC2 [Bemcentinib] + CCNC(=O)c1noc(-c2cc(C(C)C)c(O)cc2O)c1-c1ccc(CN2CCOCC2)cc1 [Luminespib] (partner 0.01 µM)
Outline: as §1

Axitinib + Trametinib = compound: CNC(=O)c1ccccc1Sc1ccc2c(/C=C/c3ccccn3)n[nH]c2c1 [Axitinib] + CC(=O)Nc1cccc(-n2c(=O)n(C3CC3)c(=O)c3c(Nc4ccc(I)cc4F)n(C)c(=O)c(C)c32)c1 [Trametinib] (partner 0.02 µM)
Outline: as §1

Axitinib + Alpelisib = compound: CNC(=O)c1ccccc1Sc1ccc2c(/C=C/c3ccccn3)n[nH]c2c1 [Axitinib] + Cc1nc(NC(=O)N2CCC[C@H]2C(N)=O)sc1-c1ccnc(C(C)(C)C(F)(F)F)c1 [Alpelisib] (partner 2 µM)
Outline: as §1

| Cell Line | relative viability ([1]; first compound 1 µM) | relative viability ([1]; first compound 3.162 µM) | relative viability ([1]; first compound 10 µM) | relative viability ([1]; first compound 31.62 µM) | relative viability ([1]; first compound 100 µM) | relative viability (Bemcentinib + Luminespib; first compound 0.04 µM) | relative viability (Bemcentinib + Luminespib; first compound 0.1265 µM) | relative viability (Bemcentinib + Luminespib; first compound 0.4 µM) | relative viability (Bemcentinib + Luminespib; first compound 1.265 µM) | relative viability (Bemcentinib + Luminespib; first compound 4 µM) | relative viability (Axitinib + Trametinib; first compound 0.005 µM) | relative viability (Axitinib + Trametinib; first compound 0.01581 µM) | relative viability (Axitinib + Trametinib; first compound 0.05 µM) | relative viability (Axitinib + Trametinib; first compound 0.1581 µM) | relative viability (Axitinib + Trametinib; first compound 0.5 µM) | relative viability (Axitinib + Alpelisib; first compound 0.005 µM) | relative viability (Axitinib + Alpelisib; first compound 0.01581 µM) | relative viability (Axitinib + Alpelisib; first compound 0.05 µM) | relative viability (Axitinib + Alpelisib; first compound 0.1581 µM) | relative viability (Axitinib + Alpelisib; first compound 0.5 µM) |
| --- | --- | --- | --- | --- | --- | --- | --- | --- | --- | --- | --- | --- | --- | --- | --- | --- | --- | --- | --- | --- |
| NCI-H1666 | 0.642 | 0.68 | 0.591 | 0.612 | 0.646 | 1.05 | 1.07 | 0.993 | 0.956 | 0.955 | 0.904 | 0.868 | 0.863 | 0.847 | 0.873 | 1.12 | 0.918 | 0.942 | 1.05 | 1.1 |
| LCLC-103H | 0.525 | 0.518 | 0.472 | 0.464 | 0.456 | 1.06 | 1.15 | 0.94 | 1.11 | 0.899 | 0.737 | 0.651 | 0.685 | 0.705 | 0.693 | 0.987 | 0.922 | 0.845 | 0.621 | 0.999 |
| NCI-H1755 | 0.433 | 0.437 | 0.441 | 0.424 | 0.443 | 0.742 | 0.52 | 0.617 | 0.34 | 0.418 | 0.806 | 0.764 | 0.786 | 0.822 | 0.789 | 0.987 | 0.84 | 0.922 | 0.878 | 0.915 |
| NCI-H520 | 0.203 | 0.254 | 0.26 | 0.205 | 0.222 | 0.248 | 0.191 | 0.252 | 0.23 | 0.303 | 0.704 | 0.542 | 0.733 | 0.541 | 0.686 | 0.923 | 0.951 | 0.91 | 0.784 | 0.899 |
| PC-14 | 0.651 | 0.513 | 0.515 | 0.191 | 0.134 | 0.132 | 0.137 | 0.186 | 0.159 | 0.132 | 0.763 | 0.789 | 0.879 | 0.759 | 1.04 | 1.02 | 0.931 | 0.94 | 0.893 | 1.05 |
| NCI-H2405 | – | 0.508 | 0.511 | 0.433 | 0.503 | 0.659 | 0.716 | 0.609 | 0.754 | 0.656 | 0.635 | 0.56 | 0.513 | 0.594 | 0.576 | 0.854 | 0.847 | 0.854 | 0.877 | 0.849 |
| NCI-H1395 | – | 0.617 | 0.62 | – | 0.603 | 0.611 | 0.733 | 0.808 | 0.686 | 1 | 1 | 0.789 | 0.941 | 0.911 | 1.02 | 1.22 | 1.02 | 1.21 | 1.07 | 1.18 |
